This note sets out measurements from article PMC12461607, “Profiling polyamine–protein interactions in live cells through photoaffinity labeling” (RSC Chemical Biology, 2025).

The target of the assay is T1, TUBA1C (Homo sapiens, UniProt Q9BQE3).
T1 construct: endogenous protein in live HeLa cells, no tag; modified C-terminal peptides 423-449 and 431-449
Kind of assay: live-cell photoaffinity labelling, biotin enrichment, TMT LC-MS/MS. It counts as cell-based. The note with it: covalent after UV 365 nm; live HeLa cells; C-terminal acidic region.

T1 sequence (Q9BQE3 whole entry): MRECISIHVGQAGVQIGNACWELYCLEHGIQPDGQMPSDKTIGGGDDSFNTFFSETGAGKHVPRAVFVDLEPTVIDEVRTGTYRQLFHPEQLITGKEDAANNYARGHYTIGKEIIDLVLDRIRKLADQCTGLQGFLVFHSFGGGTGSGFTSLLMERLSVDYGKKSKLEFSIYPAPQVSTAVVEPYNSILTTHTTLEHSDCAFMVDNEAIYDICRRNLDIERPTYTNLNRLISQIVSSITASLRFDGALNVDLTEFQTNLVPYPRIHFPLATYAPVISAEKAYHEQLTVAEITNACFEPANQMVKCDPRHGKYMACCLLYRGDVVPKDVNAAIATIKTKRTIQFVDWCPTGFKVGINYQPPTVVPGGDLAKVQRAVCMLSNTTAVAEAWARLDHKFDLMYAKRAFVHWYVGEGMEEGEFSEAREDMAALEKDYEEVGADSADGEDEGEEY

Consider `C#CCCC1(CCNCCCCNCCCN)N=N1` [compound 4, spermidine analog 4], for which the “live-cell photoaffinity labelling, biotin enrichment, TMT LC-MS/MS” value was “several tubulins (including TUBA1C)”.

Consider `C#CCCC1(CCNCCCNCCCCN)N=N1` [compound 5, spermidine analog 5], for which the “live-cell photoaffinity labelling, biotin enrichment, TMT LC-MS/MS” value is reported as “several tubulins (including TUBA1C)”.
